Active and inactive are the calls of the source. The calls are words filed in the database; no cut-off is given here.

Series [1] in a line: Lipophilicity, logP of compound. Conditions: octanol/water. In kind it is physicochemical.
Series [2] deals with Plasmodium yoelii nigeriensis. Description: Antimalarial activity against blood stage multidrug-resistant Plasmodium yoelii nigeriensis infected swiss mouse assessed as protection against Plasmodium yoelii nigeriensis infection at 48 mg/kg, po administered once daily for 3 days measured on day 4 and subsequently twice a week up to 28 days by microscopy. In kind it is functional.

Series [3] relates to Plasmodium yoelii nigeriensis. Description: Antimalarial activity against blood stage multidrug-resistant Plasmodium yoelii nigeriensis infected swiss mouse assessed as suppression of parasitaemia at 48 mg/kg, po administered once daily for 3 days measured on day 4 by microscopic analysis relative to control. In kind it is functional.
Series [4] has as its system Plasmodium yoelii nigeriensis. Description: Antimalarial activity against blood stage multidrug-resistant Plasmodium yoelii nigeriensis infected swiss mouse assessed as suppression of parasitaemia at 24 mg/kg, po administered once daily for 3 days measured on day 4 by microscopic analysis relative to control. In kind it is functional.
Series [5] deals with Plasmodium yoelii nigeriensis. Description: Antimalarial activity against blood stage multidrug-resistant Plasmodium yoelii nigeriensis infected swiss mouse assessed as protection against […] infection at 6 mg/kg, po administered once daily for 3 days measured after 28 days by microscopy. In kind it is functional, organism-based.
Series [6] concerns Plasmodium yoelii nigeriensis. The experiment in a line: Antimalarial activity against blood stage multidrug-resistant Plasmodium yoelii nigeriensis infected swiss mouse assessed as protection against Plasmodium yoelii nigeriensis infection at 12 mg/kg, po administered once daily for 3 days measured on day 4 and subsequently twice a week up to 28 days by microscopy. In kind it is functional.

The test system of series [7] is Plasmodium yoelii nigeriensis. Description: Antimalarial activity against blood stage multidrug-resistant Plasmodium yoelii nigeriensis infected swiss mouse assessed as protection against […] infection at 6 mg/kg, po administered once daily for 3 days measured on day 4 and subsequently twice a week up to 28 days by microscopy. In kind it is functional, organism-based.

The test system of series [8] is Plasmodium yoelii nigeriensis. Description: Antimalarial activity against blood stage multidrug-resistant Plasmodium yoelii nigeriensis infected swiss mouse assessed as suppression of parasitaemia at 12 mg/kg, po administered once daily for 3 days measured on day 4 by microscopic analysis relative to control. In kind it is functional.
Series [9] concerns Plasmodium yoelii nigeriensis. The experiment in a line: Antimalarial activity against blood stage multidrug-resistant Plasmodium yoelii nigeriensis infected swiss mouse assessed as protection […] at 24 mg/kg, po administered once daily for 3 days measured on day 4 and subsequently twice a week up to 28 days by microscopy. In kind it is functional.
Series [10] concerns Plasmodium yoelii nigeriensis. Description: Antimalarial activity against blood stage multidrug-resistant Plasmodium yoelii nigeriensis infected swiss mouse assessed as suppression of parasitaemia at 6 mg/kg, po administered once daily for 3 days measured on day 4 by microscopic analysis relative to control. In kind it is functional.
The test system of series [11] is Plasmodium yoelii nigeriensis. The experiment in a line: Antimalarial activity against blood stage multidrug-resistant Plasmodium yoelii nigeriensis infected swiss mouse assessed as protection […] at 24 mg/kg, po administered once daily for 3 days measured after 28 days by microscopy. In kind it is functional, organism-based.
For series [12], the system named is Plasmodium yoelii nigeriensis. The experiment in a line: Antimalarial activity against blood stage multidrug-resistant Plasmodium yoelii nigeriensis infected swiss mouse assessed as protection against Plasmodium yoelii nigeriensis infection at 12 mg/kg, po administered once daily for 3 days measured after 28 days by microscopy. In kind it is functional, organism-based.

Broadly, the logP is a log measure of how a compound divides between an organic and an aqueous phase. Low readings indicate lower lipophilicity, high ones higher lipophilicity. The term inhibition in vivo denotes the percentage by which the read-out fell short of the control. Consider `CCCCCCC(=O)O[C@@H]1O[C@@H]2O[C@@]3(C)CC[C@H]4[C@H](C)CC[C@@H]([C@H]1C)[C@@]24OO3`, for which the lipophilicity (logP) in [1] was determined as 5.7. In series [2], the Activity was found to be 100%. In addition, in series [3], the inhibition in vivo at 48 mg/kg turned out to be 100%. Moreover, in series [4], the inhibition in vivo at 24 mg/kg was determined as 100%.

On to `COc1ccc(C(CC(=O)O[C@@H]2O[C@@H]3O[C@@]4(C)CC[C@H]5[C@H](C)CC[C@@H]([C@H]2C)[C@@]35OO4)c2ccc(OC)cc2)cc1`, for which the result in series [5] and in series [7] was inactive. Besides, the Activity in [6] is on record as 80%; in series [2] it was 100%; in [9] it was 100%. This compound showed a logP in series [1] of 6.9. The inhibition in vivo at 48 mg/kg in series [3] amounted to 100%. The inhibition in vivo at 12 mg/kg in series [8] turned out to be 100%. Also, in series [10], the inhibition in vivo at 6 mg/kg is 100%. Further, the inhibition in vivo at 24 mg/kg in series [4] turned out to be 100%.

As for `C[C@H]1[C@H](OC(=O)C(c2ccccc2)c2ccccc2)O[C@@H]2O[C@@]3(C)CC[C@H]4[C@H](C)CC[C@@H]1[C@@]24OO3`, the outcome in series [5] and in series [7] was inactive. Moreover, the Activity in series [6], in series [2] and in series [9] was 100% each time. In addition, in [1], the logP worked out at 6.97. Moreover, the inhibition in vivo at 48 mg/kg in series [3] is 100%. The inhibition in vivo at 12 mg/kg in series [8] stood at 100%. Also, the inhibition in vivo at 6 mg/kg in series [10] turned out to be 100%. Besides, in series [4], the inhibition in vivo at 24 mg/kg came out at 100%.

Compound `CC(=O)O[C@@H]1O[C@@H]2O[C@@]3(C)CC[C@H]4[C@H](C)CC[C@@H]([C@H]1C)[C@@]24OO3` returned a lipophilicity (logP) in series [1] of 3.37. Also, in series [3], the inhibition in vivo at 48 mg/kg came to 100%. In addition, the outcome in series [9] was inactive. For the same compound, the inhibition in vivo at 24 mg/kg in series [4] was found to be 99%.

For the compound `C[C@H]1[C@H](OC(=O)CC(c2ccc(Br)cc2)c2ccc(Br)cc2)O[C@@H]2O[C@@]3(C)CC[C@H]4[C@H](C)CC[C@@H]1[C@@]24OO3`, the result in series [6], in series [11] and in series [12] was inactive. In [1], this compound showed a logP of 8.81. Moreover, the Activity in [2] and in series [9] was 100% in each case. In series [3], the inhibition in vivo at 48 mg/kg came out at 100%. Also, the inhibition in vivo at 12 mg/kg in series [8] stood at 100%. Besides, in [4], the inhibition in vivo at 24 mg/kg stood at 100%.

`C[C@H]1[C@H](OC(=O)CC(c2ccc(F)cc2)c2ccc(F)cc2)O[C@@H]2O[C@@]3(C)CC[C@H]4[C@H](C)CC[C@@H]1[C@@]24OO3`: the outcome in series [5] and in series [7] was inactive. Moreover, the Activity came to 80% in series [6], 100% in series [2] and 100% in series [9]. This compound registered a log partition coefficient (logP) in series [1] of 7.47. For the same compound, in series [3], the inhibition in vivo at 48 mg/kg amounted to 100%. Further, the inhibition in vivo at 12 mg/kg in series [8] is 100%. For the same compound, the inhibition in vivo at 6 mg/kg in series [10] turned out to be 100%. Moreover, the inhibition in vivo at 24 mg/kg in [4] was found to be 100%.

`CCCCCC(=O)O[C@@H]1O[C@@H]2O[C@@]3(C)CC[C@H]4[C@H](C)CC[C@@H]([C@H]1C)[C@@]24OO3`: the logP in [1] amounted to 5.28. In addition, the Activity in series [2] is 100%. Further, the inhibition in vivo at 48 mg/kg in series [3] is 100%. For the same compound, the result in [9] was inactive. For the same compound, the inhibition in vivo at 24 mg/kg in [4] stood at 100%.

In series [1], `C[C@H]1[C@H](OC(=O)CCc2ccccc2)O[C@@H]2O[C@@]3(C)CC[C@H]4[C@H](C)CC[C@@H]1[C@@]24OO3` showed a logP of 5.63. Also, in [2], the Activity is given as 100%. For the same compound, the inhibition in vivo at 48 mg/kg in series [3] was 100%. Besides, the inhibition in vivo at 24 mg/kg in [4] came out at 100%.

For `C[C@H]1[C@H](OC(=O)CC(c2ccccc2)c2ccccc2)O[C@@H]2O[C@@]3(C)CC[C@H]4[C@H](C)CC[C@@H]1[C@@]24OO3`, the outcome in series [6], in series [11] and in series [12] was inactive. The same compound yielded a logP in series [1] of 7.15. Also, the Activity in series [2] and in series [9] was 100% throughout. Moreover, the inhibition in vivo at 48 mg/kg in series [3] came out at 100%. For the same compound, the inhibition in vivo at 12 mg/kg in series [8] worked out at 100%. For the same compound, the inhibition in vivo at 24 mg/kg in series [4] came out at 100%.

In the case of `C[C@H]1[C@H](OC(=O)CC(c2ccc(Cl)cc2)c2ccc(Cl)cc2)O[C@@H]2O[C@@]3(C)CC[C@H]4[C@H](C)CC[C@@H]1[C@@]24OO3`, the result in [6], in [11] and in [12] was inactive. Further, the logP in series [1] was found to be 8.27. In addition, the Activity in [2] and in [9] was 100% each time. In addition, the inhibition in vivo at 48 mg/kg in series [3] was 100%. For the same compound, the inhibition in vivo at 12 mg/kg in [8] was determined as 96%. The inhibition in vivo at 24 mg/kg in [4] was 100%.
